Like-named read-outs stand apart in the source and are kept apart here. Blank lines part the entries; values can stand above or below the compound they belong to.
Tests used:
[1] = test system: L1210 murine leukemia tumor cells; assay: Cell cycle distribution of L1210 cells treated in vivo; set-up: species or system mice; settings: cisplatin 6 mg/kg, compound of Example 80 20 mg/kg, 24 hours after administration
[2] = biological target: T1, PKC contained in a rat brain preparation; assay: Protein Kinase C (PKC) assay; type: biochemical; settings: histone H1 substrate
T1 construct: Enzyme was prepared from a preparation of rat brain (Promega) 0.5 μg diluted with 1.6 ml of 10 mM Hepes buffer pH 7.5
Method: The PKC assay provides a measure of inhibitory activity of the test compounds against PKC contained in a rat brain preparation.
Enzyme was prepared from a preparation of rat brain (Promega) 0.5 μg diluted with 1.6 ml of 10 mM Hepes buffer pH 7.5. Reaction buffer was comprised of 150 mM Hepes buffer, 4 mM CaCl2, 15 mM MgCl2, 3 mM EDTA, 3.75 mM EGTA at pH 7.5. Histone substrate was made by dissolving histone H1 (Sigma) in water at 1.5 mg/ml. Phosphatidylserine/diolein liposomes were made by mixing 75 μl of 10 mg/ml phosphatidylserine (Sigma) in CHCl3 with 60 μl of 2.5 mg/ml diolein in CHCl3 (Sigma) in a glass vial and evaporating the CHCl3 under N2. The film was suspended in 1 ml water and sonicated 6×15 sec with a microtip probe at room temperature.
To carry out the assay, 50 μl buffer, 20 μl histone, 20 μl liposomes, and inhibitor or solvent control were added to wells of a 96-well filter plate (Millipore) with enough water, if necessary, to make the final volume 110 μl. 20 μl of enzyme preparation solution were added and incubated for 10 minutes at room temperature. This was followed by the addition of 20 μl of ^32P ATP (75 μM ATP in water, labeled ATP at 25 μCi/ml) which was incubated for 15 minutes at room temperature. The reaction was terminated by the addition of 50 μl of 40% (w/v) trichloroacetic acid. The filters were washed by vacuum filtration with 5×125 μl of ice cold 10% (w/v) trichloroacetic acid. The filters were placed in scintillation fluor and counted to determine precipitated labeled phosphate incorporated into substrate. The percent inhibition was calculated in comparison to the uninhibited controls.

HT-29 cells [3] = assay: MPM-2 assay (mitotic index) in cultured HT-29 cells; type: cell-based; settings: compound 312.5 nM
Method: This assay uses […] antibody to quantitate the M-phase specific histological markers in the determination of a mitotic index (fraction of cells found in mitosis).
HT-29 cells were grown in Dulbecco's Modified Eagle Medium with high glucose, supplemented with 1 mM sodium pyruvate, 2 mM L-glutamine, 16 mM HEPES, 8 mM MOPS, and 10% fetal bovine serum. They were incubated at 37° C. in an atmosphere of 5% CO2 and 100% relative humidity.
Cells were seeded in 96-well tissue culture plates at 100 μl per well at a concentration of 40,000 per ml. The cells were allowed to attach and begin growing for 24 hours. 100 μl of adriamycin (ADR) at 2 μM (final=1 μM) was added to test cells and the cells incubated for 1 hour as above. Following the incubation, the plates were washed 2 times with growth media. The media was replaced with 100 μl fresh media and incubate a further 16 hours. Serial 2-fold dilutions of potential abrogators were added to the test wells. The rows that received nocodazole (NOC) have 2 μl NOC added at 2.5 μg/ml. The plates were then incubated an additional 6 hours. Following the incubation, the plates were centrifuged for 5 minutes at 4° C. at 200 g. One hundred microliters of Carnoy's fixative, 3 parts methanol to 1 part acetic acid, was added directly to each well and left at room temperature for 15 minutes. The media/fixative mixture was removed by suction and replaced with ice cold ethanol:acetic acid in a 20:1 ratio. The plates were stored at 4° C. until stained.
The fixed cells were stained for MPM-2 using the Upstate Biotechnology MPM-2 rhodamine detection kit per manufacturer's instructions. Briefly, the cells were washed with Dulbecco's phosphate buffered saline (DPBS) with calcium and magnesium followed by incubation with blocking buffer consisting of 8% bovine serum albumen (BSA) for a minimum of 1 hour. The cells were then washed with PBS one time and treated overnight at 4° C. with primary antibody at 5 μg/ml (100 μl per well) diluted with DPBS with 1% BSA. The cells were then washed twice for 15 minutes each with DPBS and then incubated with a 1:1000 dilution of rhodamine conjugated goat antimouse IgG in DPBS with 1% BSA for 1 hour. The secondary antibody was washed off in three 30-minute washes with DPBS. The cells were then counterstained using the Molecular Probes Mycoflour kit to stain nuclei following the instructions for the kit.
The stained cells were viewed under fluorescence microscopy using fluorescence filters suitable for detecting rhodamine and DAPI stains. Images were captured using a Spot digital camera and images analyzed using ImageQuant to quantitate total nuclei and to count MPM-2 positive cells.

HT-29 cells [4] = assay: Clonogenic assay in HT-29 cells ± Adriamycin; type: cell-based; settings: Homo sapiens, compound 250 nM
Method: This cellular assay is a measure of the toxicity of the test compounds in the absence and presence of DNA damage induced by a conventional chemotherapeutic agent.
HT-29 cells were grown in Dulbecco's Modified Eagle Medium with high glucose, supplemented with 1 mM sodium pyruvate, 2 mM L-glutamine, 16 mM HEPES, 8 mM MOPS, and 10% fetal bovine serum. The cells were incubated at 37° C. in an atmosphere of 5% CO2 and 100% relative humidity.
Two or three T-75 tissue culture flasks were seeded at about 50% confluency in 30 ml media and incubated for approximately 24 hours. Adriamycin (ADR) (dissolved at 5 mM in distilled water (dH2O)) was added to the flasks to a final concentration of 1 uM or 500 nM. One flask received no ADR. The cells were allowed to incubate with the ADR for 1 hour. All flasks were then washed twice with 20 ml media allowed to incubate a further 16 hours in 30 ml media.
The stock agar (3.2% Seaplaque GTG Agarose (BioWhittaker Molecular Applications)) was suspended in distilled water and autoclaved for 20 minutes. The agar was melted prior to use in a microwave oven. […]
The cells were trypsinized using Trypsin-EDTA and their concentration adjusted to […] with media. […] The colonies were counted using a Hamamatsu video imaging system and ImageQuant software.

[5] = biological target: T2, human Wee1 kinase aa215-647 (Homo sapiens, UniProt P30291); assay: Wee1 inhibition filter binding assay (OY); type: biochemical; settings: isolated Wee1 kinase, Poly Ornithine:Tyrosine (4:1) substrate; read-out: WEE1OY IC50
T2 construct: human Wee1 kinase aa215-647; purchased Onyx Pharmaceuticals; host or cells: baculovirus protein expression system
Method: This assay provides a measure of inhibitory ability of the test compounds against isolated Wee1 kinase.
The Wee1 kinase assay measures enzyme mediated phosphorylation of tyrosine on a synthetic peptide substrate in the presence of compounds being tested. […] Compounds were dissolved and diluted in DMSO, 10 μl 3×EDB buffer (150 mM Tris, pH 8.0, 30 mM NaCl, 30 mM MgCl2, 3 mM DTT), 18 μl water, and 2 μl of drug dilution were added to the test wells and mixed thoroughly, 10 μl of enzyme-substrate mixture was added to the wells. […] The plates were mixed thoroughly for 5 minutes at room temperature. […] The reaction was stopped by adding 50 μl of ice cold 20% TCA with 0.1 M tetrasodium pyro-phosphate. Plates were incubated on ice or refrigerated at 4° C. for 1 hour. Liquid reaction mixture was removed on a vacuum manifold, and the precipitated phosphorylated substrate was rinsed 5 times with 200 μl ice cold 10% TCA with 0.1 M tetrasodium pyrophosphate. 25 μl liquid scintillation cocktail were added to the membrane bound substrate and the plate read in a Microbeta (Perkin-Elmer) plate reader. Activity of compounds was calculated in comparison to uninhibited control determinations in each assay.

Chk1 enzyme = biological target: T3, Chk1 enzyme (Homo sapiens, UniProt O14757); assay: Chk1 enzyme inhibition assay; type: biochemical; settings: isolated Chk1 enzyme, GST-Cdc25 substrate; read-out: CHK1A IC50
T3 construct: purchased Onyx Pharmaceuticals
T3 sequence (O14757 1-476): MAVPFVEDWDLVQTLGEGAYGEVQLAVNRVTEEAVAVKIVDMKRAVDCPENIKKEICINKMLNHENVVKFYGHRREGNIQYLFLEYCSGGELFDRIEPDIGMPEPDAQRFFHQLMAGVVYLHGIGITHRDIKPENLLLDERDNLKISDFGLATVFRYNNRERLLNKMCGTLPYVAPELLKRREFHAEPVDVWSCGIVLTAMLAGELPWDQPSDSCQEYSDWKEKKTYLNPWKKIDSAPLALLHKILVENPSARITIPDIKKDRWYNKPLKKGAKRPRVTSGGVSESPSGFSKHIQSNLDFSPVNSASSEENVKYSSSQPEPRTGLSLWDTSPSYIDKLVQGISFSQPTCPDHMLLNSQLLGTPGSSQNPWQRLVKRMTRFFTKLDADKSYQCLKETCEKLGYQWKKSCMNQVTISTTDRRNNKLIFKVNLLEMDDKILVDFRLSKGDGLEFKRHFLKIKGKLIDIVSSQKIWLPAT
Method: The assay was carried out in round bottom polypropylene 96-well plates (Costar). Compounds were tested in serial dilutions beginning with a high concentration of 50 μM followed by up to nine 3-fold dilutions. Compounds were dissolved and diluted in DMSO. 2 μl of drug were spotted on the bottom of the assay plates, then diluted with 58 μl of Chk1 buffer (20 mM Tris, pH 8.0, 50 mM NaCl, 10% Glycerol, 10 mM MgCl2, 5 mM dithiothreitol), and mixed at room temperature for 1 minute. […] Contents of the wells were mixed for 1 minute and incubated at room temperature for 10 minutes. […] The contents were mixed for 1 minute and incubated at 30° C. for 30 minutes. The reaction was stopped by adding 50 μl of 120 mM EDTA to each well, except the control wells already containing EDTA. 140 μl of the contents of the wells were transferred to the wells of Reacti-Bind Glutathione Coated White 96-Well Plates (Pierce). Contents were mixed for 1 minute and incubated at room temperature for 1 hour. All of the wells were rinsed three times each with 300 μl PBS and air dried. 200 μl MicroScint 20 (Packard) was put in the wells. Plates were sealed with an adhesive cover and counted in a Top Count Microplate Scintillation counter (Packard). Activity of compounds was calculated in comparison to uninhibited control determinations in each assay.

T2 sequence (P30291 215-646 limits assumed): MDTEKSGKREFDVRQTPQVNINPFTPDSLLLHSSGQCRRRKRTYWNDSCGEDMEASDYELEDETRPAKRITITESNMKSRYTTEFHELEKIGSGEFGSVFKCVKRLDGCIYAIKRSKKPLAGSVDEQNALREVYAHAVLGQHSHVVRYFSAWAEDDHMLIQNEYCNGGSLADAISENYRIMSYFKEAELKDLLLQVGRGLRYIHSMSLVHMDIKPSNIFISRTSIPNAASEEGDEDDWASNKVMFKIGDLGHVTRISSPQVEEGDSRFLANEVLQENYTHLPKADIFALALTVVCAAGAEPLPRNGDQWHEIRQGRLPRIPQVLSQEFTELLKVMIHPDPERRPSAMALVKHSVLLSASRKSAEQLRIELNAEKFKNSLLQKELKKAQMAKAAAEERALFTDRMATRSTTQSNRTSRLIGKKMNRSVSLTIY

SMILES: N.N.[Cl][Pt][Cl] [Cisplatin, reference compound]
Cell cycle distribution of L1210 cells, G1 [1]: 14.0% | Cell cycle distribution of L1210 cells, G2M [1]: 59.6% | Cell cycle distribution of L1210 cells, S [1]: 26.4%

IC50 [2]: 1800 nM
SMILES: O=C1NC(=O)c2c1c(-c1c(Cl)cccc1Cl)cc1c2c2cc(O)ccc2n1CCO [Example 94, 4-(2,6-Dichlorophenyl)-9-Hydroxy-6-(2-hydroxyethyl)pyrrolo[3,4-c]carbazole-1,3(2H,6H)-dione]

SMILES: CN(C)CCCOc1cc2c(cc1O)c1c3c(c(-c4ccccc4Cl)cc1n2C)C(=O)NC3=O [Example 363, 4-(2-Chlorophenyl)-8-[3-(dimethylamino)propoxy]-9-hydroxy-6-methylpyrrolo[3,4-c]carbazole-1,3(2H,6H)-dione]
% of cells in M phase, + Media (HT-29 cells [3]; 6 hours): 26.4% | % of cells in M phase, + ADR (HT-29 cells [3]; after ADR 1 μM 1 hour and 16 hours): 18.9% | % of cells in M phase, + ADR + NOC (HT-29 cells [3]; after ADR 1 μM, with nocodazole 6 hours): 86.2% | % of cells in M phase, + NOC (HT-29 cells [3]; with nocodazole 6 hours): 37.2%

IC50 [2]: 171 nM
SMILES: CN(C)CCNC(=O)CCn1c2ccc(O)cc2c2c3c(c(-c4ccccc4)cc21)C(=O)NC3=O [Example 214, N-[2-(Dimethylamino)ethyl]-3-(9-hydroxy-1,3-dioxo-4-phenyl-2,3-dihydropyrrolo[3,4-c]carbazol-6 (1H)-yl)propanamide]

IC50 [2]: > 4000 nM
SMILES: O=C1NC(=O)c2c1c(-c1ccccc1)cc1oc3ccc(O)cc3c21 [Example 369, 9-Hydroxy-4-phenyl-1H-[1] benzofuro[3,2-e]isoindole-1,3(2H)-dione]

SMILES: Cn1c2cc(OCCCN3CCCC3)c(O)cc2c2c3c(c(-c4ccccc4Cl)cc21)C(=O)NC3=O [Example 366, 4-(2-Chlorophenyl)-9-hydroxy-6-methyl-8-[3-(1-pyrrolidinyl)propoxy]pyrrolo[3,4-c]carbazole-1,3(2H,6H)-dione]
activity at 0.25 µM (HT-29 cells [4]; Adriamycin pretreatment 1 hour, read-out: % of Control Colonies With DNA Damage): 2.8% | activity at 0.25 µM (HT-29 cells [4]; no Adriamycin, read-out: % of Control Colonies With No DNA Damage): 38%

IC50 [5]: 11 nM | IC50 (Chk1 enzyme): 435 nM | IC50 [2]: 480 nM
SMILES: COc1ccc2[nH]c3c(c2c1)C1C(=O)NC(=O)C1C(c1ccccc1Cl)C3 (mixture of isomers) [Example 68, 4-(2-Chlorophenyl)-9-methoxy-4,5,6,10c-tetrahydropyrrolo[3,4-c]carbazole-1,3(2H,3aH)-dione]

SMILES: O=C1NC(=O)c2c1c(-c1ccccc1Cl)cc1c2c2cc(O)ccc2n1CCCO [Example 80, 4-(2-Chlorophenyl)-9-hydroxy-6-(3-hydroxypropyl)pyrrolo[3,4-c]carbazole-1,3(2H,6H)-dione]
IC50 [2]: 1490 nM | Cell cycle distribution of L1210 cells, G1 [1]: 60.0% | Cell cycle distribution of L1210 cells, G2M [1]: 12.4% | Cell cycle distribution of L1210 cells, S [1]: 27.6%

IC50 [2]: 1500 nM
SMILES: O=C(O)CCn1c2ccc(O)cc2c2c3c(c(-c4ccccc4Cl)cc21)C(=O)NC3=O [Example 230, 3-(4-(2-Chlorophenyl)-9-hydroxy-1,3-dioxo-2,3-dihydropyrrolo[3,4-c]carbazol-6 (1H)-yl)propanoic acid]

From patent US7094798B1, “Inhibitors of checkpoint kinases (Wee1 and Chk1)” (Pfizer Inc, priority 2002, dated 2006)
